For 23 compounds, IC50 and inhibition results are on record in patent publication US10865208B2, “ATG7 inhibitors and the uses thereof” (Millennium Pharmaceuticals, Inc., priority 2016, dated 2020).

Molecules are shown by their SMILES. A value given as a limit tells only on which side of the number the result lay.

This test has as its target recombinant human His-ATG7 enzyme (Homo sapiens (Human), UniProt O95352). The test is described as follows: ATG7 Enzyme Assay (HTRF/FRET, ATG3-GST and Flag-Gabarap). It is filed as biochemical. The settings on record: for inhibition at 0.123 µM: Concentration 0.123 μM; for inhibition at 0.123 µM / inhibition at 0.111 µM: read-out: Percent Inhibition; for inhibition at 0.111 µM: Concentration 0.111 μM. The gist of the method: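 HTRF read-out after 2 h at 24° C, using Eu-cryptate anti-Flag and XL-APC anti-GST antibodies in an EDTA stop buffer. The preceding 105 min, 24° C reaction (pH 7.5) held 10 μM ATP, 5 nM each ATG3-GST and Flag-Gabarap, and 0.15 nM human His-ATG7. Values are IC50 or percent inhibition at one concentration.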
(In general: TR-FRET usually uses a lanthanide donor and a delayed reading to cut background.)

Sequence of recombinant human His-ATG7 enzyme (O95352 whole entry): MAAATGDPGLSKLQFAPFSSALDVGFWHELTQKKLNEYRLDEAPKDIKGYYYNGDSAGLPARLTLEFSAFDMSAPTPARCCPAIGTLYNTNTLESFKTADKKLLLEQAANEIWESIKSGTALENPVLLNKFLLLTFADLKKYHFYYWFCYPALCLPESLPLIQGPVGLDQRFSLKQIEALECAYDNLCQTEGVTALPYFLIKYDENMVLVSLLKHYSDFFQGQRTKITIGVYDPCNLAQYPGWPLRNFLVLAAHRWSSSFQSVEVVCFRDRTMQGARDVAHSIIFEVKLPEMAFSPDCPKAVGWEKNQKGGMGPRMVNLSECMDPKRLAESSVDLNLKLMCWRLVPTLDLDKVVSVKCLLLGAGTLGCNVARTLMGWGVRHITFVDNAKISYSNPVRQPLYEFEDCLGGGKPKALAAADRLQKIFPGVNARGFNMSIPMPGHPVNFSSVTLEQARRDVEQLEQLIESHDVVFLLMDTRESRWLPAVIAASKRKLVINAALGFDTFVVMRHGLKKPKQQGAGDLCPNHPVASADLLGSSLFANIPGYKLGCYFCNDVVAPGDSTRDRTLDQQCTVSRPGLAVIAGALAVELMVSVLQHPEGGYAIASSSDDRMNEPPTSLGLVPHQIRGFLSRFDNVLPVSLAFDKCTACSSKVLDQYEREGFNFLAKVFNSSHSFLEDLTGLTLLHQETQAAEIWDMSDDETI

The term IC50 denotes the concentration needed to halve the response being measured. One may read the inhibition as the percentage by which the read-out fell short of the control. With `Nc1ncnc2c1c(SC1CCCC1)nn2[C@@H]1O[C@H](COS(N)(=O)=O)[C@@H](O)[C@H]1O` [Compound I-62, {(2R,3S,4R,5R)-5-[4-amino-3-(cyclopentylsulfanyl)-1H-pyrazolo[3,4-d]pyrimidin-1-yl]-3,4-dihydroxytetrahydrofuran-2-yl}methyl sulfamate], the 50% inhibitory concentration (IC50) is less than 20 nM and the inhibition at 0.123 µM is 89%.

For the compound `Nc1ncnc2c1c(SCc1ccc(F)cc1)nn2[C@@H]1O[C@H](COS(N)(=O)=O)[C@@H](O)[C@H]1O` [Compound I-63, [(2R,3S,4R,5R)-5-{4-amino-3-[(4-fluorobenzyl)sulfanyl]-1H-pyrazolo[3,4-d]pyrimidin-1-yl}-3,4-dihydroxytetrahydrofuran-2-yl]methyl sulfamate], the IC50 was 20 to 50 nM and the inhibition at 0.111 µM stood at 83%.

As to `Nc1ncnc2c1c(Sc1ccc(Cl)cc1)nn2[C@@H]1O[C@H](COS(N)(=O)=O)[C@@H](O)[C@H]1O` [Compound I-64, [(2R,3S,4R,5R)-5-{4-amino-3-[(4-chlorophenyl)sulfanyl]-1H-pyrazolo[3,4-d]pyrimidin-1-yl}-3,4-dihydroxytetrahydrofuran-2-yl]methyl sulfamate], the IC50 is 20 to 50 nM and the inhibition at 0.123 µM came to 84%.

For `Nc1ncnc2c1c(SC1CC1)nn2[C@@H]1O[C@H](COS(N)(=O)=O)[C@@H](O)[C@H]1O` [Compound I-65, {(2R,3S,4R,5R)-5-[4-amino-3-(cyclopropylsulfanyl)-1H-pyrazolo[3,4-d]pyrimidin-1-yl]-3,4-dihydroxytetrahydrofuran-2-yl}methyl Sulfamate], the IC50 is less than 20 nM and the inhibition at 0.123 µM worked out at 89%.

Take `Nc1ncnc2c1c(Sc1ccncc1)nn2[C@@H]1O[C@H](COS(N)(=O)=O)[C@@H](O)[C@H]1O` [Compound I-66, {(2R,3S,4R,5R)-5-[4-amino-3-(pyridin-4-ylsulfanyl)-1H-pyrazolo[3,4-d]pyrimidin-1-yl]-3,4-dihydroxytetrahydrofuran-2-yl}methyl sulfamate]: the IC50 was in the range of 20 to 50 nM and the inhibition at 0.123 µM amounted to 68%.

For the compound `Nc1ncnc2c1c(SCc1cccc3ccccc13)nn2[C@@H]1O[C@H](COS(N)(=O)=O)[C@@H](O)[C@H]1O` [Compound I-67, [(2R,3S,4R,5R)-5-{4-amino-3-[(1-naphthylmethyl)sulfanyl]-1H-pyrazolo[3,4-d]pyrimidin-1-yl}-3,4-dihydroxytetrahydrofuran-2-yl]methyl sulfamate], the IC50 lay in the range of 50 to 100 nM and the inhibition at 0.123 µM was 64%.

For the compound `Nc1ncnc2c1c(-c1ccn[nH]1)nn2[C@@H]1O[C@H](COS(N)(=O)=O)[C@@H](O)[C@H]1O` [Compound I-68, {(2R,3S,4R,5R)-5-[4-amino-3-(1H-pyrazol-5-yl)-1H-pyrazolo[3,4-d]pyrimidin-1-yl]-3,4-dihydroxytetrahydrofuran-2-yl}methyl sulfamate], the IC50 was more than 500 nM and the inhibition at 0.123 µM was 10%.

Take `Cc1cccc(Sc2nn([C@@H]3O[C@H](COS(N)(=O)=O)[C@@H](O)[C@H]3O)c3ncnc(N)c23)c1` [Compound I-69, [(2R,3S,4R,5R)-5-{4-amino-3-[(3-methylphenyl)sulfanyl]-1H-pyrazolo[3,4-d]pyrimidin-1-yl}-3,4-dihydroxytetrahydrofuran-2-yl]methyl sulfamate]: the IC50 is less than 20 nM and the inhibition at 0.111 µM was 86%.

Turning to `C=CCOc1nn([C@@H]2O[C@H](COS(N)(=O)=O)[C@@H](O)[C@H]2O)c2ncnc(N)c12` [Compound I-71, {(2R,3S,4R,5R)-5-[3-(allyloxy)-4-amino-1H-pyrazolo[3,4-d]pyrimidin-1-yl]-3,4-dihydroxytetrahydrofuran-2-yl}methyl Sulfamate], the IC50 fell in the range of 100 to 500 nM and the inhibition at 0.123 µM worked out at 38%.

With `Nc1ncnc2c1c(SC1CNC1)nn2[C@@H]1O[C@H](COS(N)(=O)=O)[C@@H](O)[C@H]1O` [Compound I-72, {(2R,3S,4R,5R)-5-[4-amino-3-(azetidin-3-ylsulfanyl)-1H-pyrazolo[3,4-d]pyrimidin-1-yl]-3,4-dihydroxytetrahydrofuran-2-yl}methyl sulfamate], the IC50 is 50 to 100 nM and the inhibition at 0.123 µM worked out at 65%.

For `Nc1ncnc2c1c(SCc1ccc(Cl)o1)nn2[C@@H]1O[C@H](COS(N)(=O)=O)[C@@H](O)[C@H]1O` [Compound I-73, [(2R,3S,4R,5R)-5-(4-amino-3-{[(5-chloro-2-furyl)methyl]sulfanyl}-1H-pyrazolo[3,4-d]pyrimidin-1-yl)-3,4-dihydroxytetrahydrofuran-2-yl]methyl sulfamate], the IC50 lay within 20 to 50 nM and the inhibition at 0.123 µM amounted to 83%.

Regarding `Cc1ccccc1Sc1nn([C@@H]2O[C@H](COS(N)(=O)=O)[C@@H](O)[C@H]2O)c2ncnc(N)c12` [Compound I-74, [(2R,3S,4R,5R)-5-{4-amino-3-[(2-methylphenyl)sulfanyl]-1H-pyrazolo[3,4-d]pyrimidin-1-yl}-3,4-dihydroxytetrahydrofuran-2-yl]methyl sulfamate], the IC50 lay in the range of 50 to 100 nM and the inhibition at 0.123 µM came to 61%.

Consider `Nc1ncnc2c1c(OCCCl)nn2[C@@H]1O[C@H](COS(N)(=O)=O)[C@@H](O)[C@H]1O` [Compound I-75, {(2R,3S,4R,5R)-5-[4-amino-3-(2-chloroethoxy)-1H-pyrazolo[3,4-d]pyrimidin-1-yl]-3,4-dihydroxytetrahydrofuran-2-yl}methyl Sulfamate], for which the IC50 lay in the range of 100 to 500 nM and the inhibition at 0.123 µM turned out to be 41%.

In the case of `Nc1ncnc2c1c(OCc1ccccc1)nn2[C@@H]1O[C@H](COS(N)(=O)=O)[C@@H](O)[C@H]1O` [Compound I-76, {(2R,3S,4R,5R)-5-[4-amino-3-(benzyloxy)-1H-pyrazolo[3,4-d]pyrimidin-1-yl]-3,4-dihydroxytetrahydrofuran-2-yl}methyl Sulfamate], the IC50 is 100 to 500 nM and the inhibition at 0.123 µM was found to be 31%.

Turning to `CC(C)CSc1nn([C@@H]2O[C@H](COS(N)(=O)=O)[C@@H](O)[C@H]2O)c2ncnc(N)c12` [Compound I-77, {(2R,3S,4R,5R)-5-[4-amino-3-(isobutylsulfanyl)-1H-pyrazolo[3,4-d]pyrimidin-1-yl]-3,4-dihydroxytetrahydrofuran-2-yl}methyl sulfamate], the IC50 lay in the range of 20 to 50 nM and the inhibition at 0.123 µM is 85%.

For `Nc1ncnc2c1c(Sc1ccccc1Cl)nn2[C@@H]1O[C@H](COS(N)(=O)=O)[C@@H](O)[C@H]1O` [Compound I-78, [(2R,3S,4R,5R)-5-{4-amino-3-[(2-chlorophenyl)sulfanyl]-1H-pyrazolo[3,4-d]pyrimidin-1-yl}-3,4-dihydroxytetrahydrofuran-2-yl]methyl sulfamate], the IC50 was 20 to 50 nM and the inhibition at 0.123 µM amounted to 80%.

For `Nc1ncnc2c1c(I)nn2[C@@H]1O[C@H](COS(N)(=O)=O)[C@@H](O)[C@H]1O` [Compound I-79, [(2R,3S,4R,5R)-5-(4-amino-3-iodo-1H-pyrazolo[3,4-d]pyrimidin-1-yl)-3,4-dihydroxytetrahydrofuran-2-yl]methyl sulfamate], the IC50 was less than 20 nM and the inhibition at 0.123 µM came out at 85%.

Consider `CN(C)CCSc1nn([C@@H]2O[C@H](COS(N)(=O)=O)[C@@H](O)[C@H]2O)c2ncnc(N)c12` [Compound I-80, [(2R,3S,4R,5R)-5-(4-amino-3-{[2-(dimethylamino)ethyl]sulfanyl}-1H-pyrazolo[3,4-d]pyrimidin-1-yl)-3,4-dihydroxytetrahydrofuran-2-yl]methyl sulfamate], for which the IC50 lay in the range of 100 to 500 nM and the inhibition at 0.123 µM is 51%.

On to `Cc1occc1Sc1nn([C@@H]2O[C@H](COS(N)(=O)=O)[C@@H](O)[C@H]2O)c2ncnc(N)c12` [Compound I-81, [(2R,3S,4R,5R)-5-{4-amino-3-[(2-methyl-3-furyl)sulfanyl]-1H-pyrazolo[3,4-d]pyrimidin-1-yl}-3,4-dihydroxytetrahydrofuran-2-yl]methyl sulfamate], for which the IC50 was 50 to 100 nM and the inhibition at 0.123 µM was found to be 69%.

Turning to `Nc1ncnc2c1c(Sc1ccccc1)nn2[C@@H]1O[C@H](COS(N)(=O)=O)[C@@H](O)[C@H]1O` [Compound I-82, {(2R,3S,4R,5R)-5-[4-amino-3-(phenylsulfanyl)-1H-pyrazolo[3,4-d]pyrimidin-1-yl]-3,4-dihydroxytetrahydrofuran-2-yl}methyl Sulfamate], the IC50 is 20 to 50 nM and the inhibition at 0.111 µM worked out at 80%.

Turning to `Nc1ncnc2c1c(SCC(F)(F)F)nn2[C@@H]1O[C@H](COS(N)(=O)=O)[C@@H](O)[C@H]1O` [Compound I-83, [(2R,3S,4R,5R)-5-{4-amino-3-[(2,2,2-trifluoroethyl)sulfanyl]-1H-pyrazolo[3,4-d]pyrimidin-1-yl}-3,4-dihydroxytetrahydrofuran-2-yl]methyl sulfamate], the IC50 fell in the range of 20 to 50 nM and the inhibition at 0.123 µM amounted to 82%.

Take `Nc1ncnc2c1c(Sc1cccc3ccccc13)nn2[C@@H]1O[C@H](COS(N)(=O)=O)[C@@H](O)[C@H]1O` [Compound I-84, {(2R,3S,4R,5R)-5-[4-amino-3-(1-naphthylsulfanyl)-1H-pyrazolo[3,4-d]pyrimidin-1-yl]-3,4-dihydroxytetrahydrofuran-2-yl}methyl sulfamate]: the IC50 lay within 50 to 100 nM and the inhibition at 0.123 µM worked out at 62%.

In the case of `Nc1ncnc2c1c(SC(F)F)nn2[C@@H]1O[C@H](COS(N)(=O)=O)[C@@H](O)[C@H]1O` [Compound I-85, [(2R,3S,4R,5R)-5-{4-amino-3-[(difluoromethyl)sulfanyl]-1H-pyrazolo[3,4-d]pyrimidin-1-yl}-3,4-dihydroxytetrahydrofuran-2-yl]methyl sulfamate], the IC50 lay in the range of 20 to 50 nM and the inhibition at 0.123 µM came out at 77%.
